Reference: patent publication US6355628B1, “Combination therapy using pentafluorobenzenesulfonamides” (priority 1999, dated 2002)

Experiments:
[1] = Weight loss and mortality in MX-1 xenograft study; assay type: in vivo, athymic nude mice; details: efficacious dose, administered alone
Procedure: Its activity is not affected by the multidrug resistance (MDR) phenotype.
Administration of suboptimal doses of 3 mg/kg cisplatin i.v. bolus or 15 mg/kg/hr compound 1 i.v. infusion for 4 hours was compared with the efficacy of coadministration against MX-1 tumors.

[2] = test system: MX-1 human mammary tumor xenografts; assay: MX-1 human mammary tumor xenografts in athymic nude mice, tumor growth; assay type: in vivo
[3] = test system: β-tubulin; assay: Tubulin polymerization / binding to β-tubulin; assay type: biochemical; details: by covalently binding to β-tubulin
[4] = test system: various tumor cell lines; assay: Growth and clonogenic potential of tumor cell lines in culture; assay type: cell-based

SMILES	body weight loss accompanying efficacy, single agent [1]	efficacy against MX-1 tumor, single agent ([2]; efficacious dose, not stated)	tubulin polymerization [3]	inhibiting the growth of MX-1 xenografts, single agent ([2]; 30 mg/kg/hr infused i.v. for 4 hours)	activity versus multidrug resistance (MDR) phenotype [4]	growth and clonogenic potential of various tumor cell lines in culture [4]
N.N.[Cl][Pt][Cl] [Cisplatin, cis-diaminedichloroplatinum (II), reference compound]	accompanied by body weight loss	very efficacious	–	–	–	–
COc1ccc(NS(=O)(=O)c2c(F)c(F)c(F)c(F)c2F)cc1F.[Na] [Compound 1, 2-Fluoro-1-methoxy-4-(pentafluorophenylsulfonamido)benzene, sodium salt]	accompanied by body weight loss	–	prevents tubulin polymerization	very effective	not affected	inhibits the growth and clonogenic potential
